“And” between values parts separate entries of the source, which are not always exact repeats. Equal values may be shown once.
What was measured:
[1] = Liquid, Ebulliometric method (Recirculating still)
[2] = refractive index (Na D-line) (dimensionless); conditions: Liquid, Standard Abbe refractometry
[3] = refractive index (Na D-line) (dimensionless); xn = mol fraction of the nth substance listed; conditions: 293.15 K, 93.9 kPa, Liquid, Standard Abbe refractometry

CC(=O)OC(C)C [1-methylethyl ethanoate]
Conditions	vapor or sublimation pressure [kPa]
[1], 359.68 K	93.9

[2]
Conditions	refractive index
293.15 K, 93.9 kPa	1.3774
298.15 K, 101.33 kPa	1.37739

CC(=O)OC(C)C [1-methylethyl ethanoate] + COc1ccccc1
[3]
Conditions	refractive index
x1 = 0.1058	1.5013
x1 = 0.1227	1.499
x1 = 0.1703	1.4924
x1 = 0.1794	1.4915
x1 = 0.2163	1.4872
x1 = 0.2803	1.4768
x1 = 0.3303	1.4727
x1 = 0.3684	1.4673
x1 = 0.4254	1.4561
x1 = 0.4928	1.4481
x1 = 0.5116	1.4445
x1 = 0.5769	1.4361
x1 = 0.6338	1.4272
x1 = 0.7247	1.4154
x1 = 0.8136	1.4026
x1 = 0.9006	1.3903
x1 = 1	1.3774

COc1ccccc1 [anisole]
Conditions	vapor or sublimation pressure [kPa]
[1], 423.92 K	93.9

[2]
Conditions	refractive index
293.15 K, 93.9 kPa	1.5168 and 1.5167
298.15 K, 101.33 kPa	1.51554

COc1ccccc1 [anisole] + CC(=O)OC(C)C
Conditions	refractive index
[3], x2 = 0	1.5167

COc1ccccc1 [anisole] + CCCOC(C)=O
[3]
Conditions	refractive index
x2 = 0	1.5168
x2 = 0.1119	1.5019
x2 = 0.1399	1.4979
x2 = 0.1575	1.4954
x2 = 0.2187	1.4875
x2 = 0.2418	1.4844
x2 = 0.3387	1.4706
x2 = 0.354	1.4687
x2 = 0.4168	1.4603
x2 = 0.4759	1.4525
x2 = 0.533	1.4451
x2 = 0.5833	1.4381
x2 = 0.6096	1.435
x2 = 0.6683	1.4268
x2 = 0.7081	1.4203
x2 = 0.8047	1.4093
x2 = 0.8978	1.3968

COc1ccccc1 [anisole] + CCOC(C)=O
[3]
Conditions	refractive index
x2 = 0	1.5168
x2 = 0.1318	1.5002
x2 = 0.1651	1.4954
x2 = 0.1818	1.4935
x2 = 0.2131	1.4896
x2 = 0.2301	1.4867
x2 = 0.3334	1.4735
x2 = 0.3472	1.4712
x2 = 0.4119	1.4619
x2 = 0.4709	1.4548
x2 = 0.4899	1.4518
x2 = 0.5481	1.4426
x2 = 0.6353	1.431
x2 = 0.6467	1.4243
x2 = 0.718	1.4201
x2 = 0.7382	1.4142
x2 = 0.8354	1.3989
x2 = 0.9091	1.3874

COc1ccccc1 [anisole] + COC(C)=O
[3]
Conditions	refractive index
x2 = 0	1.5168
x2 = 0.1432	1.4995
x2 = 0.1704	1.497
x2 = 0.2986	1.4855
x2 = 0.3004	1.4826
x2 = 0.3323	1.4777
x2 = 0.41	1.4692
x2 = 0.4439	1.4625
x2 = 0.5057	1.4542
x2 = 0.5405	1.451
x2 = 0.6003	1.4372
x2 = 0.6354	1.4327
x2 = 0.6972	1.4233
x2 = 0.814	1.3994
x2 = 0.8577	1.3909
x2 = 0.9391	1.3743

CCOC(C)=O [ethyl acetate]
Conditions	vapor or sublimation pressure [kPa]
[1], 347.92 K	93.9

[2]
Conditions	refractive index
293.15 K, 93.9 kPa	1.3724
298.15 K, 101.33 kPa	1.37244

CCOC(C)=O [ethyl acetate] + COc1ccccc1
Conditions	refractive index
[3], x1 = 1	1.3724

COC(C)=O [methyl ethanoate]
Conditions	vapor or sublimation pressure [kPa]
[1], 327.9 K	93.9

[2]
Conditions	refractive index
293.15 K, 93.9 kPa	1.3615
298.15 K, 101.33 kPa	1.36146

COC(C)=O [methyl ethanoate] + COc1ccccc1
Conditions	refractive index
[3], x1 = 1	1.3615

CCCOC(C)=O [propyl ethanoate]
Conditions	vapor or sublimation pressure [kPa]
[1], 372.17 K	93.9

[2]
Conditions	refractive index
293.15 K, 93.9 kPa	1.3841
298.15 K, 101.33 kPa	1.38406

CCCOC(C)=O [propyl ethanoate] + COc1ccccc1
Conditions	refractive index
[3], x1 = 1	1.3841

— the NIST ThermoML archive (doi:10.1021/acs.jced.8b00063)
